Molecules are shown by their SMILES.

In US8293746B2, “Pyrimidinyl aryl urea derivatives being FGF inhibitors” (Novartis AG, priority 2005, dated 2012) one finds melting point data, which are given here for one compound.

A word on the melting point: it is the temperature of the solid-liquid transition.

In turn, `CCN1CCN(c2ccc(Nc3cc(N(C)C(=O)Nc4cc(OC)c(Cl)c(C(F)(F)F)c4Cl)ncn3)cc2)CC1` [Example 25, 3-(2,4-Dichloro-5-methoxy-3-trifluoromethyl-phenyl)-1-{6-[4-(4-ethyl-piperazin-1-yl)-phenylamino]-pyrimidin-4-yl}-1-methyl-urea] came in with a melting point of 143 to 144 °C.
